Experiments:
[1] = Source text: Mouse experiments: All experiments were approved by Institutional Animal Care and Use Committee of South Dakota State University. Nine-week-old C57BL/6J male mice were purchased from The Jackson Laboratory. Group 1 mice were fed with normal diet (ND, D12450Bi, Research Diets Inc. New Brunswick, N.J., USA) for 9 weeks, group 2 mice were fed with ND for 6 weeks and then high-fat diet (FD, D12451i, Research Diets Inc. New Brunswick, N.J., USA) for 3 weeks. The mice were maintained according to The Jackson Laboratory guidelines for animal care and housed at 22±2° C. temperature, 55±5% relative humidity, with a light/dark cycle of 12 hours. Food (group 1 with normal fat diet and group 2 with high-fat diet until sacrifice) and water were provided ad libitum. […] Six mice per subgroup were obtained finally. […] Blood samples were collected from the hearts of anesthetized mice after feeding and treatment for 36 days following fast for 16 hours. When sacrificed, mouse liver, kidney, spleen and epididymal fat tissues were dissected and weighed. Epididymal fat tissues were immediately frozen in liquid nitrogen and stored at −80° C.
SREBP-1 = assay: Real-time RT-PCR, SREBP-1 mRNA in 3T3-L1; type: cell-based, mouse; settings: 8 days
Source text: Realtime RT-PCR: Real-time reverse transcriptase polymerase chain reaction (RT-PCR) analysis was used to measure mRNA expression of genes SREBP-1, PPARγ, C/EBPα, low density lipoprotein receptor (LDLR), Adiponectin, and fatty acid synthase (FAS) under the control of β-actin. Briefly, total RNA was isolated from 3T3-L1 cells following treatment for 8 days with Trizol reagent (Invitrogen, Carlsbad, Calif., USA) according to the manufacturer's instruction. RNA was quantified using absorption of light at 260 nm, and sample purity was checked by OD 260 nm/280 nm. 0.8 μg of total RNA from each sample was used for reverse transcription reaction using the TaqMan Reverse Transcription Reagents (Applied Biosystems, Foster City, Calif., USA) according to the manufacturers' instructions. PCR was done using the SYBR green Master Mix (Applied Biosystems, Foster City, Calif., USA) according to the manufacturers' instructions. The temperature cycling conditions of amplification were as follows: an initial step of denaturation at 95° C. for 10 min, 40 cycles of denaturation at 95° C. for 30 s, annealing at 55° C. for 30 s, and elongation at 72° C. for 30 s. Realtime RT-PCR was performed using Mx3000P Realtime Thermocyclers (Statagene, La Jolla, Calif., USA). The relative mRNA levels of these genes were calculated by 2-delta delta CT method and normalized with control groups.

in vitro = settings: mouse, 3T3-L1 cells during differentiation
Experimental: Cell culture: 3T3-L1 cells were cultured at 37° C. in a humidified 5% CO2 atmosphere and grown in a culture medium (CM) (DMEM supplemented with 10% FBS, 100 units/ml penicillin and […] streptomycin). Differentiation conditions for 3T3-L1 were as described (Dowell et al, 2000). Briefly, confluent 3T3-L1 cells were maintained in culture medium for 48 hrs (day 0). Cells were placed in Differentiation Medium 1 (DM1) (CM with 167 nM insulin, 520 μM isobutylmethylxanthine (IBMX), and 1 μM dexamethasone) for a further 48 hrs (Day 2). The medium was then changed to differentiation medium 2 (DM2) (CM with 167 nM insulin) for a further 48 hrs (Day 4). The DM2 was then changed every 48 hrs for an additional 4 days (Day 8).
Culture medium was removed at 24, 48 and 72 hrs and MTT (0.5 mg/ml in pure DMEM, 50 μl/well) was added.

3T3-L1 cells = assay: Oil-Red-O staining and quantification, berberine with amentoflavone in 3T3-L1 (Example 6); type: cell-based, mouse; settings: 8 days
Experimental: Oil-Red-O staining and quantification: Oil-Red-O Staining and its quantification were performed as previously reported. Briefly, medium was removed and cells were washed with PBS twice, fixed with 3.7% formalin at room temperature for 30 min, then rinsed with pure water, added 60% isopropanol and incubated for 5 minutes, then moved out isopropanol and stained cells with diluted Oil-Red-O solution (Oil-Red-O store solution (3 mg/ml in pure isopropanol): water=3:2) at room temperature for 10 min. Then the diluted Oil-Red-O solution was removed and cells were washed 3 times with pure water. After staining, the cells were washed twice with 70% ethanol to remove excess stain. Stained oil droplets in the cells were dissolved in isopropanol containing 4% Nonidet-P40 (Fisher Scientific, Pittsburgh, Pa., USA) shaking in 37° C. at speed 100 rpm for 1 hour, and OD values were measured at an absorbance of 490 nm and then normalized with control group.

GATA-3 = assay: Real-Time RT-PCR, GATA-3 mRNA in epididymal fat of FD mice; type: in vivo, mouse
Experimental: RNA and protein purification and quantification from epididymal fat tissues: RNA and protein was isolated from 60 mg of epididymal fat tissues with Trizol (Invitrogen, Carlsbad, Calif., USA) following the protocol recommended by the manufacturers. RNA was dissolved in pure water and quantified at 260/280 nm, and sample integrity was checked by 1.5% agarose gel electrophoresis. Protein concentration was determined using the Micro BCA Protein Assay Kit (Fisher Scientific, Pittsburgh, Pa., USA) according to the manufacturer's instructions.
Quantitative Real-Time RT-PCR: Real-Time reverse transcriptase polymerase chain reaction (RT-PCR) analysis was used to measure mRNA expression of genes PPARγ, C/EBPα, GATA-2 and GATA-3 in the control of β-actin. Total RNA (0.8 μg) from each sample was used for a reverse transcription reaction using the TaqMan Reverse Transcription Reagents (Applied Biosystems, Foster City, Calif., USA) following the manufacturer's instructions. PCR was done using the SYBR green Master Mix (Applied Biosystems, Foster City, Calif., USA) following the manufacturer's instructions. The cycling conditions of amplification were as follows: an initial step of denaturation at 95° C. for 10 min, 40 cycles of denaturation at 95° C. for 30 s, annealing at 55° C. for 30 s, and elongation at 72° C. for 30 s. Real-Time PCR was performed using Mx3000P Real-Time Thermocyclers (Stratagene, La Jolla, Calif., USA). The relative mRNA levels of these genes were calculated by 2-delta delta CT method and normalized with control-treated groups.

COc1ccc2cc3[n+](cc2c1OC)CCc1cc2c(cc1-3)OCO2.[Cl-] [berberine, Berberine (Chloride Form)]
liver weight, berberine vs control treated subgroup ([1]; ND mice): no significant difference
toxicity to FD mice organs or to ND mice ([1]; up to 3 mg/kg/day i.p., 36 days): did not appear to exhibit any obvious toxicity
decrease of SREBP-1 mRNA expression vs clozapine treated group (SREBP-1; 8 μM berberine + 15 μM clozapine): 68.9%
decrease of SREBP-1 mRNA expression vs risperidone treated group (SREBP-1; 8 μM berberine + 50 μM risperidone): 80.9%
cytotoxicity at 2 days, 8 μM (in vitro): 15.6%
cytotoxicity at 4 days, 8 μM (in vitro): 12.8%
cytotoxicity at 6 days, 8 μM (in vitro): 12.6%
cytotoxicity at 8 days, 8 μM (in vitro): 11.4%
reduction in lipid content vs no berberine treated group (3T3-L1 cells; 2 μM berberine, differentiation medium with 15 μM clozapine): 26%
reduction in lipid content vs no berberine treated group (3T3-L1 cells; 2 μM berberine, differentiation medium without clozapine): 9.9%
reduction in lipid content vs no berberine treated group (3T3-L1 cells; 4 μM berberine, differentiation medium with 15 μM clozapine): 70.7%
reduction in lipid content vs no berberine treated group (3T3-L1 cells; 4 μM berberine, differentiation medium without clozapine): 59.6%
reduction in lipid content vs no berberine treated group (3T3-L1 cells; 8 μM berberine, differentiation medium with 15 μM clozapine): 88.1%
reduction in lipid content vs no berberine treated group (3T3-L1 cells; 8 μM berberine, differentiation medium without clozapine): 81.7%
reduction in lipid content vs no berberine treated group (3T3-L1 cells; 16 μM berberine, differentiation medium without clozapine): 81%
GATA-3 mRNA expression up-regulated by (GATA-3; 0.75 mg/kg/day): 3.2 fold
GATA-3 mRNA expression up-regulated by (GATA-3; 1.5 mg/kg/day): 4.3 fold
GATA-3 mRNA expression up-regulated by (GATA-3; 3 mg/kg/day): 4.8 fold

Source: patent publication US20110281852A1 (priority 2010, published 2011)
